In one data set the test system is Strain 264 E. Coli. Put plainly: non-specific resistivity of mice infected with E. Coli. Format: in vivo, Strain C57BL6 mice. Also on record: Mean lifetime: unit not given beside the values. Here is the method: Doses of the preparation ranging from 200 to 0.2 μg were injected intraperitoneally at ten-fold intervals in 0.5 ml of physiologic solution to Strain C57BL6 mice two hours before their infecting. Mice were infected with S. Typhi in a dose of 1·10^4 microbial cells; another group of animals was infected with Strain 264 E. coli in a dose of […] microbial cells. Mice infected with the same microbial culture, but receiving no preparation, were used a controls. Lethal outcomes in mice were recorded every day for a period of 10 days.

Data set [1] deals with natural killers (CD3−, CD16+ and CD56+). Put plainly: cytotoxic activity of natural killers against K-562 cells. Format: cell-based, human. Here is the method:
Labeled cells of […] of myeloblastoid Strain K-562, as well as mononuclear cells of 10 healthy blood donors and 10 patients with various diseases with low and high levels of cytotoxicity, were used for the study of effects of various concentrations of the preparation on cytotoxic activity of natural killers (CD3^−, CD16^+ and CD56^+).
The used Strain K-562 cells to effector cells ratio was 1:25 (100 μl of labeled cells and 100 μl of mononuclear cells). The studies were carried out using 96-well plates; incubation for 16 to 24 hours in a CO2-incubator at 37° C. was carried out. Then, the contents of the wells was transferred to filters, washed, dried and placed in solution with scintillation liquid with consecutive determination of index using a β-counter. Cytotoxic index (CI) was calculated using the following formula: [formula]
A=the target cells radioactivity in the presence of effector cells;
B=radioactivity after cells treatment with […] (maximum value);
C=radioactivity of target cells in the absence of effector cells.

For data set [2], the system named is cellular immune response (DHR to ram erythrocytes). Put plainly: delayed hypersensitivity reaction (DHR) in mice. In kind it is in vivo. The procedure: To evaluate the effect of the preparation on cellular immunity reaction, delayed hypersensitivity reaction (DHR) was used. The mice were sensitized by subcutaneous injection of 1·10^7 ram erythrocytes contained in a volume of 20 μl. Doses of the preparation ranging from 0.2 to 2,000 μg were injected at ten-fold intervals simultaneously with sensitizing and shocking dose of the antigen. Shocking dose of ram erythrocytes (1·10^8) was injected under aponeurotic plate of left hind paw on the 5th day after sensitization. Injection of 20 μl of physiologic solution in the right paw served as control. Intensity of inflammatory reaction was recorded 24 hours after the administration of shocking dose of the antigen. For this purpose, the mice were killed and, immediately after this, both paws were amputated at the level of ankle joint and weighed on torsion balance. Reaction index (RI) was determined as the difference of masses of study (S) and control (C) paws using the following formula: [formula]

“Also recorded” adds a separate entry of the source. Where two headings read alike, the source gives them in different places.

Protocol for spleen cell culture: Effects of the compounds on lymphoid cells proliferation and interleukin-2 induction in vitro were evaluated with the use of Strain BalB/c mice weighing 16 to 18 g. Animals of control and study groups were matched by sex and weight. Each dose of the preparation was tested on 10 animals; as a whole, more than 800 mice have been studied.
Spleens of the animals were used for carrying out the immunologic reactions. The organs were cut and homogenized in a glass homogenizer. […] The suspensions were centrifuged in a K23 centrifuge at 1,500 rpm at 4° C. for 10 minutes.
The suspensions were diluted 100-fold with 3% acetic acid contrasted with methylene blue, and cells were counted in Goryaev's chamber. Cell viability was evaluated with aid of 0.1% trypan blue in physiologic solution.

Turning to `Cl.Nc1cccc2c(=O)[nH][nH]c(=O)c12` [5-amino-2,3-dihydrophthalazine-1,4-dione hydrochloride], the lymphoid cells proliferation in the data set on spleen cell culture (2.5 μg/ml, ConA) was found to be 195 ± 27; in the data set on spleen cell culture (2.5 μg/ml, LPS) it was 251 ± 44; in the data set on spleen cell culture (2.5 μg/ml, no mitogen), 249 ± 93; in the data set on spleen cell culture (12.5 μg/ml, ConA), 178 ± 28; with spleen cell culture (12.5 μg/ml, LPS), 256 ± 40; in the data set with spleen cell culture (12.5 μg/ml, no mitogen) it was 369 ± 56. Also, the lymphoid cells proliferation in the data set with spleen cell culture (50 μg/ml, ConA) is on record as 11860 ± 1566; in the data set with spleen cell culture (50 μg/ml, LPS), 13232 ± 928; with spleen cell culture (50 μg/ml, no mitogen) it was 2576 ± 237; in the data set on spleen cell culture (500 μg/ml, ConA), 1323 ± 192; with spleen cell culture (500 μg/ml, LPS), 3870 ± 308; in the data set on spleen cell culture (500 μg/ml, no mitogen), 1763 ± 94. For the same compound, the mitogenic properties entry in the data set on spleen cell culture (50 μg/ml to 12.5 mg/ml) was “no mitogenic properties”. Moreover, the “spontaneous proliferation of spleen cells and proliferation induced by ConA and LPS” value in the data set with spleen cell culture (higher concentrations) is given as “inhibited”.

Consider `Nc1cccc2c(=O)[nH][nH]c(=O)c12.[Ca]` [calcium salt of 5-amino-2,3-dihydrophthalazine-1,4-dione], for which the Mean lifetime is 2.2 in the data set on Strain 264 E. Coli (dose 0.2 μg), 1.0 in the data set on Strain 264 E. Coli (dose 2 μg), 1.0 in the data set with Strain 264 E. Coli (dose 20 μg) and 1.0 in the data set with Strain 264 E. Coli (dose 200 μg). Moreover, the “Number of lethal outcomes, day 1” value is 4 in the data set on Strain 264 E. Coli (dose 0.2 μg i.p., 10 mice); 10 in the data set on Strain 264 E. Coli (dose 2 μg i.p., 10 mice); 10 in the data set with Strain 264 E. Coli (dose 20 μg i.p., 10 mice); 10 in the data set on Strain 264 E. Coli (dose 200 μg i.p. two hours before infecting, 10 mice). Further, the “Number of lethal outcomes, day 3” value in the data set with Strain 264 E. Coli (dose 0.2 μg i.p., 10 mice) came out at 6. The “increase in lifetime of animals infected with E. Coli” value with Strain 264 E. Coli (dose 0.2 μg, versus controls) was determined as 2.2 fold. The “effects on the resistivity of mice infected with E. Coli” value with Strain 264 E. Coli (doses 200 to 2 μg) is listed as “no effects”.

In the case of `CNc1cccc2c(=O)[nH][nH]c(=O)c12.[Na]` [sodium salt of 5-methylamino-2,3-dihydrophthalazine-1,4-dione], the “Cytotoxic index level, % (M)” value in data set [1] (2.5 μg/ml, High control level of CI) is given as 57 ± 0.7%; in data set [1] (2.5 μg/ml, Low control level of CI) it was 34 ± 1.3%; in data set [1] (2.5 μg/ml, Medium control level of CI) it was 41.9 ± 0.9%; in data set [1] (5.0 μg/ml, High control level of CI), 54 ± 0.8%; in data set [1] (5.0 μg/ml, Low control level of CI) it was 30 ± 1.2%. In addition, the “CI, %” value in data set [1] (2.5 μg/ml, normal level of CI) turned out to be 41.9 ± 2.8%; in data set [1] (5.0 μg/ml, normal level of CI), 38.8 ± 3.1%; in data set [1] (10.0 μg/ml, normal level of CI) it was 40.8 ± 3.0%; in data set [1] (25.0 μg/ml, normal level of CI) it was 41.4 ± 3.0%; in data set [1] (50.0 μg/ml, normal level of CI) it was 39.1 ± 4.0%; in data set [1] (75.0 μg/ml, normal level of CI), 37.7 ± 4.1%. Moreover, the “CI, %” value is listed as 41.0 ± 3.5% in data set [1] (150.0 μg/ml, normal level of CI) and 39.0 ± 3.1% in data set [1] (300.0 μg/ml, normal level of CI). In data set [1] (2.5 and 5.0 μg/ml, high initial level of CI), the “cytotoxicity of natural killers” value is “statistically significant inhibition”. Further, the “functional activity of natural killers” value in data set [1] (2.5 and 5.0 μg/ml, low initial level of CI) is recorded as “statistically significant stimulation”. In addition, the “modification of natural killers cytotoxicity” value in data set [1] (2.5 to 300 μg/ml, normal level of CI) was “did not cause significant modification”.

Take `Nc1ccc2c(=O)[nH][nH]c(=O)c2c1.[Na]` [sodium salt of 6-amino-2,3-dihydrophthalazine-1,4-dione]: the Reaction index is 19 ± 9 in data set [2] (2 μg, Strain C57BL6 mice); 11 ± 8 in data set [2] (2 μg, Strain CBA mice); 16 ± 9 in data set [2] (20 μg, Strain C57BL6 mice); 10 ± 5 in data set [2] (20 μg, Strain CBA mice); 15 ± 6 in data set [2] (200 μg, Strain C57BL6 mice); 2 ± 1.5 in data set [2] (200 μg, Strain CBA mice). For the same compound, the “development of DHR” value in data set [2] (200 μg, high-reaction Strain CBA mice) was “inhibition of DHR; also recorded: suppressed”; in data set [2] (20 to 2 μg, mice of both strains) it was “no effect”. For the same compound, the “reaction index (trend)” value in data set [2] (mice of both strains, as the dose of the preparation decreased) is on record as “tendency to increase”.

(Values after patent publication US20030195183A1, “Method for correcting immune system of live body” (priority 2000, published 2003).)
